Measurements reported in patent US20070185193A1, “Huvastatin and its preparation and formulation comprising the huvastatin” (HUAIBEI HUIKE PHARMACEUTICAL, CO. LTD., priority 2003, published 2007).

How the values were obtained:
rats = assay: Animal test: blood lipid level and cholesterol in rats; format: in vivo; conditions: twice per day, 0.05 or 0.1 mg/dose/rat, blood samples after one week
Protocol: Compound 1, 2 or 3 prepared in examples 1-3 were administered to rats (10 rats in each group), respectively, twice per day, 0.05 mg/dose/rat or 0.1 mg/dose/rat. Blood samples were taken and analyzed after one week for blood lipid level and cholesterol.

physchem = conditions: pH 7.4

Row | logD (physchem) | SMILES | blood lipid versus control group (rats)
1 | 0.82 | CCC(C)(C)C(=O)OC1CC(O)C=C2C=CC(C)C(CCC3CC(O)CC(=O)O3)C21 (stereo not drawn) [Compound 1, 2,2-Dimethylbutyricacid-3-hydroxy-8-[2-(4-hydroxy-6-oxo-tetrahydropyran-2-yl)-ethyl]-7-methyl-1,2,3,7,8,8a-hexahydronaphthalen-1-yl ester] | lower than that of the control group
2 | – | CCC(C)(C)C(=O)OC1CC(O)C=C2C=CC(C)C(CCC3CC(CC(=O)O)OC(C)(C)O3)C21 (stereo not drawn) [Compound 3] | lower than that of the control group
